According to ChEMBL document CHEMBL5724914, “Linking interpersonal differences in gut microbiota composition and drug biotransformation activity” (2024):

Experiment: (§1) The drug is tested on Z-027 corresponding to metagenome with ENA study accession number: PRJEB37062 and ENA sample accession number: ERS12561826 for biotransformation under anaerobic condition. The drug concentrations were measured over 9 timepoints collected between 0 and 24 hours of incubation by liquid-chromatography-coupled mass spectrometry (LC–MS)
Conditions: 2 µM
Note: call rule not given here.

Row | Bacterial Biotransformation | SMILES
1 | Compound NOT metabolized | CCN(CC)CCOC(=O)C1(C2CCCCC2)CCCCC1 [DICYCLOMINE]
2 | Compound NOT metabolized | COc1ccc([C@@H]2Sc3ccccc3N(CCN(C)C)C(=O)[C@@H]2OC(C)=O)cc1 [DILTIAZEM]

Experiment: (§2) The drug is tested on Z-002 corresponding to rabbit gut metagenome with ENA study accession number: PRJEB37062 and ENA sample accession number: ERS12561802 for biotransformation under anaerobic condition. The drug concentrations were measured over 9 timepoints collected between 0 and 24 hours of incubation by liquid-chromatography-coupled mass spectrometry (LC–MS)
Conditions: 2 µM

Row | Bacterial Biotransformation | SMILES
3 | Compound metabolized | CCN(CC)CCOC(=O)C1(C2CCCCC2)CCCCC1 [DICYCLOMINE]
4 | Compound metabolized | COc1ccc([C@@H]2Sc3ccccc3N(CCN(C)C)C(=O)[C@@H]2OC(C)=O)cc1 [DILTIAZEM]

Experiment: as §2, with “Z-029” for “Z-002”, “rat” for “rabbit”, “ERS12561828” for “ERS12561802”
Conditions: 2 µM

Row | Bacterial Biotransformation | SMILES
5 | Compound NOT metabolized | CCN(CC)CCOC(=O)C1(C2CCCCC2)CCCCC1 [DICYCLOMINE]
6 | Compound NOT metabolized | COc1ccc([C@@H]2Sc3ccccc3N(CCN(C)C)C(=O)[C@@H]2OC(C)=O)cc1 [DILTIAZEM]

Experiment: as §1, with “Z-012” for “Z-027”, “ERS12561812” for “ERS12561826”
Conditions: 2 µM

Row | Bacterial Biotransformation | SMILES
7 | Compound metabolized | CCN(CC)CCOC(=O)C1(C2CCCCC2)CCCCC1 [DICYCLOMINE]
8 | Compound metabolized | COc1ccc([C@@H]2Sc3ccccc3N(CCN(C)C)C(=O)[C@@H]2OC(C)=O)cc1 [DILTIAZEM]

Conditions: human gut metagenome, 24 h, 2 µM

Row | Bacterial Biotransformation | SMILES
9 | Compound NOT metabolized | CCN(CC)CCOC(=O)C1(C2CCCCC2)CCCCC1 [DICYCLOMINE]
10 | Compound NOT metabolized | COc1ccc([C@@H]2Sc3ccccc3N(CCN(C)C)C(=O)[C@@H]2OC(C)=O)cc1 [DILTIAZEM]

Conditions: human gut metagenome, 24 h, 2 µM
Remark: another data set of the same source

Row | Bacterial Biotransformation | SMILES
11 | Compound NOT metabolized | CCN(CC)CCOC(=O)C1(C2CCCCC2)CCCCC1 [DICYCLOMINE]
12 | Compound metabolized | COc1ccc([C@@H]2Sc3ccccc3N(CCN(C)C)C(=O)[C@@H]2OC(C)=O)cc1 [DILTIAZEM]

Conditions: human gut metagenome, 24 h, 2 µM
Remark: another data set of the same source

Row | Bacterial Biotransformation | SMILES
13 | Compound metabolized | CCN(CC)CCOC(=O)C1(C2CCCCC2)CCCCC1 [DICYCLOMINE]
14 | Compound metabolized | COc1ccc([C@@H]2Sc3ccccc3N(CCN(C)C)C(=O)[C@@H]2OC(C)=O)cc1 [DILTIAZEM]

Conditions: human gut metagenome, 24 h, 2 µM
Remark: another data set of the same source

Row | Bacterial Biotransformation | SMILES
15 | Compound NOT metabolized | CCN(CC)CCOC(=O)C1(C2CCCCC2)CCCCC1 [DICYCLOMINE]
16 | Compound metabolized | COc1ccc([C@@H]2Sc3ccccc3N(CCN(C)C)C(=O)[C@@H]2OC(C)=O)cc1 [DILTIAZEM]

Conditions: human gut metagenome, 24 h, 2 µM
Remark: another data set of the same source

Row | Bacterial Biotransformation | SMILES
17 | Compound NOT metabolized | CCN(CC)CCOC(=O)C1(C2CCCCC2)CCCCC1 [DICYCLOMINE]
18 | Compound metabolized | COc1ccc([C@@H]2Sc3ccccc3N(CCN(C)C)C(=O)[C@@H]2OC(C)=O)cc1 [DILTIAZEM]

Conditions: human gut metagenome, 24 h, 2 µM
Remark: another data set of the same source

Row | Bacterial Biotransformation | SMILES
19 | Compound NOT metabolized | CCN(CC)CCOC(=O)C1(C2CCCCC2)CCCCC1 [DICYCLOMINE]
20 | Compound metabolized | COc1ccc([C@@H]2Sc3ccccc3N(CCN(C)C)C(=O)[C@@H]2OC(C)=O)cc1 [DILTIAZEM]

Experiment: as §2, with “WLS-240” for “Z-002”, “human” for “rabbit”, “ERS12561773” for “ERS12561802”
Conditions: 2 µM

Row | Bacterial Biotransformation | SMILES
21 | Compound NOT metabolized | CCN(CC)CCOC(=O)C1(C2CCCCC2)CCCCC1 [DICYCLOMINE]
22 | Compound metabolized | COc1ccc([C@@H]2Sc3ccccc3N(CCN(C)C)C(=O)[C@@H]2OC(C)=O)cc1 [DILTIAZEM]

Experiment: as §2, with “WLS-098” for “Z-002”, “human” for “rabbit”, “ERS12561754” for “ERS12561802”
Conditions: 2 µM

Row | Bacterial Biotransformation | SMILES
23 | Compound NOT metabolized | CCN(CC)CCOC(=O)C1(C2CCCCC2)CCCCC1 [DICYCLOMINE]
24 | Compound metabolized | COc1ccc([C@@H]2Sc3ccccc3N(CCN(C)C)C(=O)[C@@H]2OC(C)=O)cc1 [DILTIAZEM]

Conditions: human gut metagenome, 24 h, 2 µM
Remark: another data set of the same source

Row | Bacterial Biotransformation | SMILES
25 | Compound metabolized | CCN(CC)CCOC(=O)C1(C2CCCCC2)CCCCC1 [DICYCLOMINE]
26 | Compound metabolized | COc1ccc([C@@H]2Sc3ccccc3N(CCN(C)C)C(=O)[C@@H]2OC(C)=O)cc1 [DILTIAZEM]

Conditions: human gut metagenome, 24 h, 2 µM
Remark: another data set of the same source

Row | Bacterial Biotransformation | SMILES
27 | Compound metabolized | CCN(CC)CCOC(=O)C1(C2CCCCC2)CCCCC1 [DICYCLOMINE]
28 | Compound metabolized | COc1ccc([C@@H]2Sc3ccccc3N(CCN(C)C)C(=O)[C@@H]2OC(C)=O)cc1 [DILTIAZEM]

Experiment: as §2, with “Z-011” for “Z-002”, “mouse” for “rabbit”, “ERS12561811” for “ERS12561802”
Conditions: 2 µM

Row | Bacterial Biotransformation | SMILES
29 | Compound NOT metabolized | CCN(CC)CCOC(=O)C1(C2CCCCC2)CCCCC1 [DICYCLOMINE]
30 | Compound NOT metabolized | COc1ccc([C@@H]2Sc3ccccc3N(CCN(C)C)C(=O)[C@@H]2OC(C)=O)cc1 [DILTIAZEM]

Experiment: as §2, with “Z-024” for “Z-002”, “pig” for “rabbit”, “ERS12561823” for “ERS12561802”
Conditions: 2 µM

Row | Bacterial Biotransformation | SMILES
31 | Compound metabolized | CCN(CC)CCOC(=O)C1(C2CCCCC2)CCCCC1 [DICYCLOMINE]
32 | Compound NOT metabolized | COc1ccc([C@@H]2Sc3ccccc3N(CCN(C)C)C(=O)[C@@H]2OC(C)=O)cc1 [DILTIAZEM]

Experiment: as §2, with “WLS-069” for “Z-002”, “human” for “rabbit”, “ERS12561748” for “ERS12561802”
Conditions: 2 µM

Row | Bacterial Biotransformation | SMILES
33 | Compound metabolized | CCN(CC)CCOC(=O)C1(C2CCCCC2)CCCCC1 [DICYCLOMINE]
34 | Compound metabolized | COc1ccc([C@@H]2Sc3ccccc3N(CCN(C)C)C(=O)[C@@H]2OC(C)=O)cc1 [DILTIAZEM]

Experiment: as §2, with “Z-016” for “Z-002”, “mouse” for “rabbit”, “ERS12561815” for “ERS12561802”
Conditions: 2 µM

Row | Bacterial Biotransformation | SMILES
35 | Compound NOT metabolized | CCN(CC)CCOC(=O)C1(C2CCCCC2)CCCCC1 [DICYCLOMINE]
36 | Compound metabolized | COc1ccc([C@@H]2Sc3ccccc3N(CCN(C)C)C(=O)[C@@H]2OC(C)=O)cc1 [DILTIAZEM]

Conditions: human gut metagenome, 24 h, 2 µM
Remark: another data set of the same source

Row | Bacterial Biotransformation | SMILES
37 | Compound metabolized | CCN(CC)CCOC(=O)C1(C2CCCCC2)CCCCC1 [DICYCLOMINE]
38 | Compound metabolized | COc1ccc([C@@H]2Sc3ccccc3N(CCN(C)C)C(=O)[C@@H]2OC(C)=O)cc1 [DILTIAZEM]

Experiment: as §2, with “WLS-038” for “Z-002”, “human” for “rabbit”, “ERS12561745” for “ERS12561802”
Conditions: 2 µM

Row | Bacterial Biotransformation | SMILES
39 | Compound NOT metabolized | CCN(CC)CCOC(=O)C1(C2CCCCC2)CCCCC1 [DICYCLOMINE]
40 | Compound NOT metabolized | COc1ccc([C@@H]2Sc3ccccc3N(CCN(C)C)C(=O)[C@@H]2OC(C)=O)cc1 [DILTIAZEM]
